# From US6670363B1, “Azole compounds as therapeutic agents for fungal infections” (Ranbaxy Laboratories Limited, priority 2000, dated 2003)
# Tests used:
# Histoplasma capsulatum = format: cell-based
# Cryptococcus neoformans = assay: In vitro MIC, NCCLS M27A, Cryptococcus neoformans; format: cell-based; set-up: MIC, C. neoformans I: unit not given beside the values; MIC, C. neoformans M 106: unit not given here; conditions: for MIC, C. neoformans I: C. neoformans strain I; for MIC, C. neoformans M 106: C. neoformans strain M 106
# A. fumigatus s 1008 = assay: In vitro MIC, NCCLS M38P broth method (RPMI 1640/MOPS pH7), Aspergillus fumigatus; format: cell-based; conditions: for MIC, A. fumigatus 1008: A. fumigatus strain 1008
# Candida = assay: In vitro MIC, NCCLS M27A, Candida species; format: cell-based; set-up: MIC, Candida albicans 1.549 / MIC, Candida albicans Y-01-19 / MIC, C. krusei 766-1 / MIC, C. krusei Q. C / MIC, Candida tropicalis ATCC / MIC, C. glabrata 90030: unit not given beside the values; MIC, Candida albicans A 26 / MIC, C. parapsilosis Q. C.: unit not given here; conditions: for MIC, C. glabrata 90030: C. glabrata strain 90030; for MIC, C. krusei 766-1: C. krusei strain 766-1; for MIC, C. krusei Q. C: C. krusei strain Q. C; for MIC, C. parapsilosis Q. C.: C. parapsilosis strain Q. C.; for MIC, Candida albicans 1.549: Candida albicans strain 1.549; for MIC, Candida albicans A 26: Candida albicans strain A 26; for MIC, Candida albicans Y-01-19: Candida albicans strain Y-01-19
Structure (SMILES),"MIC, H. capsulatum (Histoplasma capsulatum) [µg/mL]","MIC, C. neoformans I (Cryptococcus neoformans)","MIC, C. neoformans M 106 (Cryptococcus neoformans)","MIC, A. fumigatus 1008 (A. fumigatus s 1008)","MIC, C. glabrata 90030 (Candida)","MIC, C. krusei 766-1 (Candida)","MIC, C. krusei Q. C (Candida)","MIC, C. parapsilosis Q. C. (Candida)","MIC, Candida albicans 1.549 (Candida)","MIC, Candida albicans A 26 (Candida)","MIC, Candida albicans Y-01-19 (Candida)","MIC, Candida tropicalis ATCC (Candida)",melting point [°C],MIC (υg/ml) (A. fumigatus s 1008) (A. fumigatus s 1008) [µg/mL]
"Cc1nn([C@H](C)[C@](O)(Cn2cncn2)c2ccc(F)cc2F)c(=O)n1-c1ccc(N2CCN(c3ccc(Cl)cc3Cl)CC2)cc1 [Compound 33, 2-{[1R2R/1S2S]-2-(2,4-Difluorophenyl)-2-hydroxy-1-methyl-3-(1H-1,2,4-triazol-1-yl)propyl}-4-{4-[4-(2,4-dichlorophenyl)-1-piperazinyl]phenyl}-3-(2H,4H)-5-methyl-1,2,4-triazolone]",0.12,<0.03,<0.03,0.50,0.25,0.25,0.06,<0.03,0.13,<0.03,0.13,<0.03,,
"COc1ccccc1N1CCN(c2ccc(-n3c(C)nn(CC(O)(Cn4cncn4)c4ccc(F)cc4F)c3=O)cc2)CC1 (stereo not drawn) [Compound 35, 2-[2-(2,4-Difluorophenyl)-2-hydroxy-3-(1H-1,2,4-triazol-1-yl)propyl]-4-{4-[4-(2-methoxyphenyl)-1-piperazinyl]phenyl}-3-(2H,4H)-5-methyl-1,2,4-triazolone]",0.2,0.80,3.12,>12.5,12.50,12.50,3.12,0.20,1.56,<0.02,3.12,<0.02,,
"Cc1nn(CC(O)(Cn2cncn2)c2ccc(F)cc2F)c(=O)n1-c1ccc(N2CCN(c3ccc(F)cc3)CC2)cc1 (stereo not drawn) [Compound 36, 2-[2-(2,4-Difluorophenyl)-2-hydroxy-3-(1H-1,2,4-triazol-1-yl)propyl]-4-{4-[4-(4-fluorophenyl)-1-piperazinyl]phenyl}-3-(2H,4H)-5-methyl-1,2,4-triazolone]",< 0.02,0.20,0.40,>12.5,3.12,3.12,1.56,<0.02,0.20,<0.02,0.40,<0.02,,
"O=c1n(-c2ccc(N3CCN(c4ccc(Cl)c(Cl)c4)CC3)cc2)cnn1CC(O)(Cn1cncn1)c1ccc(F)cc1F (stereo not drawn) [Compound 37, 2-[2-(2,4-Difluorophenyl)-2-hydroxy-3-(1H-1,2,4-triazol-1-yl)propyl]-4-{4-[4-(3,4-dichlorophenyl)-1-piperazinyl]phenyl}-3-(2H,4H)-1,2,4-triazolone]",< 0.03,<0.03,<0.03,>16,0.12,0.25,0.06,<0.03,0.06,<0.03,0.06,<0.03,194 to 196,
"Nc1ccc(N2CCN(c3ccc(-n4cnn(CC(O)(Cn5cncn5)c5ccc(F)cc5F)c4=O)cc3)CC2)c(N)c1 (stereo not drawn) [Compound 38, 2-[2-(2,4-Difluorophenyl)-2-hydroxy-3-(1H-1,2,4-triazol-1-yl)propyl]-4-{4-[4-(2,4-diaminophenyl)-1-piperazinyl]phenyl}-3-(2H,4H)-1,2,4-triazolone]",> 16,>16,>16,>16,>16,>16,>16,>16,>16,>16,>16,>16,215 to 222,
"Cc1ccc(N2CCN(c3ccc(-n4cnn(CC(O)(Cn5cncn5)c5ccc(F)cc5F)c4=O)cc3)CC2)cc1 (stereo not drawn) [Compound 39, 2-[2-(2,4-Difluorophenyl)-2-hydroxy-3-(1H-1,2,4-triazol-1-yl)propyl]-4-{4-[4-(4-methylphenyl)-1-piperazinyl]phenyl}-3-(2H,4H)-1,2,4-triazolone]",0.05,<0.02,0.05,6.25,0.10,0.80,0.10,<0.02,0.10,<0.02,0.02,6.25,146 to 148,
"O=c1n(-c2ccc(N3CCN(c4ccccc4)CC3)cc2)cnn1CC(O)(Cn1cncn1)c1ccc(F)cc1F (stereo not drawn) [Compound 45, 2-[2-(2,4-Difluorophenyl)-2-hydroxy-3-(1H-1,2,4-triazol-1-yl)propyl]-4-{4-[1-phenyl-1-piperazinyl]phenyl}-3-(2H,4H)-1,2,4-triazolone]",3.12,<0.02,0.10,>12.5,0.10,0.80,0.10,<0.02,0.05,<0.02,0.05,3.12,,
"Cc1nn(CC(O)(Cn2cncn2)c2ccc(F)cc2F)c(=O)n1-c1ccc(N2CCN(c3ccc(Cl)cc3)CC2)cc1 (stereo not drawn) [Compound 46, 2-[2-(2,4-Difluorophenyl)-2-hydroxy-3-(1H-1,2,4-triazol-1-yl)propyl]-4-{4-[4-(4-chlorophenyl)-1-piperazinyl]phenyl}-3-(2H,4H)-5-methyl-1,2,4-triazolone]",0.1,0.05,0.40,>12.5,6.25,3.12,0.80,<0.02,0.40,<0.02,0.40,0.05,,
"O=c1n(-c2ccc(N3CCN(c4ccc(F)cc4Cl)CC3)cc2)cnn1CC(O)(Cn1cncn1)c1ccc(F)cc1F (stereo not drawn) [Compound 58, 2-[2-(2,4-Difluorophenyl)-2-hydroxy-3-(1H-1,2,4-triazol-1-yl)propyl]-4-{4-[4-(2-chloro-4-fluorophenyl)-1-piperazinyl]phenyl}-3-(2H,4H)-1,2,4-triazolone]",0.004,<0.03,<0.03,2.00,0.25,1.00,0.25,<0.03,0.03,<0.03,0.03,<0.03,,
"COc1ccc(F)cc1N1CCN(c2ccc(-n3cnn(CC(O)(Cn4cncn4)c4ccc(F)cc4F)c3=O)cc2)CC1 (stereo not drawn) [Compound 59, 2-[2-(2,4-Difluorophenyl)-2-hydroxy-3-(1H-1,2,4-triazol-1-yl)propyl]-4-{4-[4-(2-methoxy-5-fluorophenyl)-1-piperazinyl]phenyl}-3-(2H,4H)-1,2,4-triazolone]",< 0.03,<0.03,0.12,>16,1.00,4.00,1.00,<0.03,1.00,<0.03,0.50,<0.03,,
"COC(=O)Cc1ccc(N2CCN(c3ccc(-n4cnn(CC(O)(Cn5cncn5)c5ccc(F)cc5F)c4=O)cc3)CC2)cc1 (stereo not drawn) [Compound 93, 2-[2-(2,4-Difluorophenyl)-2-hydroxy-3-(1H-1,2,4-triazol-1-yl)propyl]-4-{4-[4-(4-(2-methoxy-2-oxoethyl)phenyl)-1-piperazinyl]phenyl}-3-(2H,4H)-1,2,4-triazolone]",,,,,,,,,,,,,66 to 69,>12.5
"O=C(O)CCc1ccc(N2CCN(c3ccc(-n4cnn(CC(O)(Cn5cncn5)c5ccc(F)cc5F)c4=O)cc3)CC2)cc1 (stereo not drawn) [Compound 94, 2-[2-(2,4-Difluorophenyl)-2-hydroxy-3-(1H-1,2,4-triazol-1-yl)propyl]-4-{4-[4-(4-(carboxyethyl)-phenyl)-1-piperazinyl]phenyl}-3-(2H,4H)-1,2,4-triazolone]",,,,,,,,,,,,,235 to 239,>12.5
"O=c1n(-c2ccc(N3CCN(c4ccc(CCO)cc4)CC3)cc2)cnn1CC(O)(Cn1cncn1)c1ccc(F)cc1F (stereo not drawn) [Compound 95, 2-[2-(2,4-Difluorophenyl)-2-hydroxy-3-(1H-1,2,4-triazol-1-yl)propyl]-4-{4-[4-(4-(2-hydroxyethyl)phenyl)-1-piperazinyl]phenyl}-3-(2H,4H)-1,2,4-triazolone]",,,,,,,,,,,,,114 to 115,>12.5
